Results: patent US4962224A, “N-naphthoylglycines as aldose reductase inhibitors” (American Home Products Corporation, priority 1989, dated 1990)
“And” between values parts separate entries of the source, which are not always exact repeats. Identical values can stand only once. Like-named read-outs stand apart in the source and are kept apart here.

How the values were obtained:
[1] = molecular target: T1, aldose reductase (Bos taurus, UniProt P16116); assay: aldose reductase inhibiting effects in vitro (Table I, IN VITRO); assay type: biochemical, bovine (lens); conditions: for inhibition at 0.04 µM / inhibition at 0.1 µM / inhibition at 1 µM / inhibition at 10 µM: read-out: % Inhibition IN VITRO
T1 construct: preparation of the enzyme from bovine lens; from tissue; host or cells: bovine lens
From the text: In the present case the procedure of Hayman and Kinoshita was modified in that the final chromatography step was omitted in the preparation of the enzyme from bovine lens. The results are tabulated in Table I under the heading IN VITRO.

[2] = tested on: dulcitol accumulation; assay: lowering of dulcitol (galactitol) accumulation in tissues of galactosemic rats (Table I, IN VIVO); design: species or system rat (Sprague-Dawley); conditions: galactosemic rats, 4 days; for % Lowering dulcitol accumulation IN VIVO, D: diaphragm; for % Lowering dulcitol accumulation IN VIVO, L: lens
From the text: Such experiments are exemplified hereinbelow after the listing of the following general comments pertaining to these experiments:
(a) Four or more groups of six male rats, […], Sprague-Dawley strain, were used. The first group, the control group, was fed a mixture of laboratory chow (rodent Laboratory Chow, Purina) and […] at 20% (w/w %) concentration. […] The test compound was either admixed to the diet or administered by gavage. In experiments involving compound administration in the diet, the average dose administered was calculated from the actual food intake of the animals in each group. The concentration of galactose in the diet of the treated groups was the same as that for the untreated galactosemic group.
(b) After four days, the animals were killed by decapitation. The eyeballs were removed and punctured with a razor blade; the freed lenses were rolled gently on filter paper and weighed. The sciatic nerves were dissected as completely as possible and weighed. Both tissues when frozen can be kept up to two weeks before being analyzed for galactitol.
Only two minor reagent changes were made: (a) the rinsing mixture was an aqueous 5% (w/v) trichloroacetic acid solution and (b) the stock solution was prepared by dissolving 25 mg of dulcitol in 100 mL of an aqueous trichloroacetic acid solution. [N.B.: For each experiment the average value found in the tissue from rats fed the glucose diet was subtracted from the individual values found in the corresponding tissue in galactose-fed rats to obtain the amount of polyol accumulated.]
The figures under L, N, and D represent the percentage decrease of galactitol accumulation in the tissues of the lens, sciatic nerve, and diaphragm, respectively, for treated rats as compared to untreated rats.

Compound	inhibition at 0.04 µM ([1]; 4 × 10^-8 M) [%]	inhibition at 0.1 µM ([1]; 10^-7 M) [%]	inhibition at 10 µM [1] [%]	inhibition at 10 µM ([1]; 10^-5 M) [%]	inhibition at 1 µM ([1]; 10^-6 M) [%]	also measured
COc1ccc2c(C(=S)N(C)CC(=O)O)c(OCc3ccccc3)ccc2c1C(F)(F)F	45	84	96			inhibition at 1 µM [1]: 96%
COc1ccc2c(C(=O)N(C)CC(=O)O)c(Cl)ccc2c1C(F)(F)F [Cl O OH, N-[[2-Chloro-6-methoxy-5-(trifluoromethyl)-1-naphthalenyl]carbonyl]-N-methylglycine]	36	63		90	87	
COc1ccc2c(C(=O)N(C)CC(N)=O)c(Cl)ccc2c1C(F)(F)F [Example 2, [[[2-Chloro-6-methoxy-5-(trifluoromethyl)-1-naphthalenyl]carbonyl]methylamino]acetamide]				9	0	% Lowering dulcitol accumulation IN VIVO, D ([2]; 24 mg/kg): 53%; % Lowering dulcitol accumulation IN VIVO, L ([2]; 24 mg/kg): N.S.
COc1ccc2c(C(=O)N(C)CC(=O)O)c(OCC(F)(F)F)ccc2c1C(F)(F)F [Example 3, N-[[6-Methoxy-2-(2,2,2-trifluoroethoxy)-5-(trifluoromethyl)-1-naphthalenyl]carbonyl]-N-methylglycine]	32	67	96		91	
CCOc1ccc2c(C(F)(F)F)c(OC)ccc2c1C(=S)N(C)CC(=O)O [Example 4, N-[[2-Ethoxy-6-methoxy-5-(trifluoromethyl)-1-naphthalenyl]thioxomethyl]-N-methylglycine]	50	87	98		95	% Lowering dulcitol accumulation IN VIVO, D ([2]; 28 mg/kg): 85%; % Lowering dulcitol accumulation IN VIVO, L ([2]; 28 mg/kg): N.S.
COc1ccc2c(C(=S)N(C)CC(=O)O)c(OCC(F)(F)F)ccc2c1C(F)(F)F [Example 5, N-[[6-Methoxy-2-(2,2,2-trifluoroethoxy)-5-(trifluoromethyl)-1-naphthalenyl]thioxomethyl]-N-methylglycine]	49	87	99		95	% Lowering dulcitol accumulation IN VIVO, D ([2]; 26 mg/kg): 88%; % Lowering dulcitol accumulation IN VIVO, L ([2]; 26 mg/kg): N.S.
CCOc1ccc2c(C(F)(F)F)c(OC)ccc2c1C(=O)N(C)CC(=O)O [Example 6, N-[[2-Ethoxy-6-methoxy-5-(trifluoromethyl)-1-naphthalenyl]carbonyl]-N-methylglycine]	33			89	89	% Lowering dulcitol accumulation IN VIVO, D ([2]; 49 mg/kg): 57%; % Lowering dulcitol accumulation IN VIVO, L ([2]; 49 mg/kg): N.S.; inhibition at 0.1 µM [1]: 65%
CCCOc1ccc2c(C(F)(F)F)c(OC)ccc2c1C(=O)N(C)CC(=O)O [Example 7, N-[[6-Methoxy-2-propoxy-5-(trifluoromethyl)-1-naphthalenyl]carbonyl]-N-methylglycine]	21					% Lowering dulcitol accumulation IN VIVO, D ([2]; 50 mg/kg): 57%; % Lowering dulcitol accumulation IN VIVO, L ([2]; 50 mg/kg): N.S.; inhibition at 0.1 µM [1]: 46%
COc1ccc2c(C(=O)N(C)CC(=O)O)c(Oc3ccccc3)ccc2c1C(F)(F)F [Example 8, N-[[6-Methoxy-2-phenoxy-5-(trifluoromethyl)-1-naphthalenyl]carbonyl]-N-methylglycine]	50	83	93			% Lowering dulcitol accumulation IN VIVO, D ([2]; 48 mg/kg): 67%; % Lowering dulcitol accumulation IN VIVO, L ([2]; 48 mg/kg): N.S.; inhibition at 1 µM [1]: 93%
COc1ccc2c(C(=O)N(C)CC(=O)O)c(Br)ccc2c1C(F)(F)F [Example 9, N-[[2-Bromo-6-methoxy-5-(trifluoromethyl)-1-naphthalenyl]carbonyl]-N-methylglycine]		63		95	90	% Lowering dulcitol accumulation IN VIVO, D ([2]; 97 mg/kg): 84%; % Lowering dulcitol accumulation IN VIVO, L ([2]; 97 mg/kg): 8%
COc1ccc2c(C(=S)N(C)CC(=O)O)c(Cl)ccc2c1C(F)(F)F [Example 10, N-[[2-Chloro-6-methoxy-5-(trifluoromethyl)-1-naphthalenyl]thioxomethyl]-N-methylglycine]	51	81		95	91	% Lowering dulcitol accumulation IN VIVO, D ([2]; 24 mg/kg): 90%; % Lowering dulcitol accumulation IN VIVO, L ([2]; 24 mg/kg): N.S.
CCCCOc1ccc2c(C(F)(F)F)c(OC)ccc2c1C(=O)N(C)CC(=O)O [Example 12, N-[[2-Butoxy-6-methoxy-5-(trifluoromethyl)-1-naphthalenyl]carbonyl]-N-methylglycine]	25	42		92	88	% Lowering dulcitol accumulation IN VIVO, D ([2]; 49 mg/kg): 55%; % Lowering dulcitol accumulation IN VIVO, L ([2]; 49 mg/kg): N.S.
CCOC(=O)NC(=O)CN(C)C(=O)c1c(F)ccc2c(C(F)(F)F)c(OC)ccc12 [F O NHCO2 C2 H5, N-[2-[(Ethoxycarbonyl)amino]-2-oxoethyl]-2-fluoro-6-methoxy-N-methyl-5-(trifluoromethyl)-1-naphthalenecarboxamide]				8	2	% Lowering dulcitol accumulation IN VIVO, D ([2]; 22 mg/kg): 55%; % Lowering dulcitol accumulation IN VIVO, L ([2]; 22 mg/kg): N.S.
COc1ccc2c(C(=O)N(C)CC(=O)O)c(F)ccc2c1C(F)(F)F [F O OH, N-[[2-Fluoro-6-methoxy-5-(trifluoromethyl)-1-naphthalenyl]carbonyl]-N-methylglycine]	49	80	94			% Lowering dulcitol accumulation IN VIVO, L ([2]; 52 mg/kg): 15%; % Lowering dulcitol accumulation IN VIVO, L ([2]; 100 mg/kg): 17%; inhibition at 1 µM [1]: 93%
COc1ccc2c(C(=S)N(C)CC(N)=O)c(F)ccc2c1C(F)(F)F [F S NH2, [[[2-Fluoro-6-methoxy-5-(trifluoromethyl)-1-naphthalenyl]thioxomethyl]methylamino]acetamide]				2	6	
COc1ccc2c(C(=S)N(C)CC(=O)O)c(F)ccc2c1C(F)(F)F [F S OH, N-[[2-Fluoro-6-methoxy-5-(trifluoromethyl)-1-naphthalenyl]thioxomethyl]-N-methylglycine]	45		99			% Lowering dulcitol accumulation IN VIVO, D ([2]; 4.8 mg/kg): 86%; % Lowering dulcitol accumulation IN VIVO, D ([2]; 25 mg/kg): 93%; % Lowering dulcitol accumulation IN VIVO, L ([2]; 4.8 mg/kg): N.S.; % Lowering dulcitol accumulation IN VIVO, L ([2]; 25 mg/kg): 23%; inhibition at 1 µM [1]: 94%
COc1ccc2c(C(=O)N(C)CC(N)=O)c(OCC(F)(F)F)ccc2c1C(F)(F)F [OCH2 CF3 O NH2]				8	1	% Lowering dulcitol accumulation IN VIVO, D ([2]; 24 mg/kg): N.S.; % Lowering dulcitol accumulation IN VIVO, L ([2]; 24 mg/kg): N.S.
COc1ccc2c(C(F)(F)F)c(OC)ccc2c1C(=O)N(C)CC(=O)O [OCH3 O OH]	56		99	95	95	% Lowering dulcitol accumulation IN VIVO, D ([2]; 26 mg/kg): 71%; % Lowering dulcitol accumulation IN VIVO, D ([2]; 53 mg/kg): N.S.; % Lowering dulcitol accumulation IN VIVO, L ([2]; 26 mg/kg): N.S.; % Lowering dulcitol accumulation IN VIVO, L ([2]; 53 mg/kg): N.S.; % Inhibition IN VITRO ([1]; 10^-6 M): 92%; % Inhibition IN VITRO ([1]; 10^-7 M): 91% and 62%; inhibition at 0.04 µM [1]: 38%
